Data published in patent US20240269139A1, “COMPOUNDS FOR TARGETED PROTEIN DEGRADATION OF KINASES” (DANA-FARBER CANCER INSTITUTE, INC., priority 2020, published 2024).
Where two headings read alike, the source gives them in different places.

Experiments:
Type in all cases: cell-based
[1] = molecular target: protein kinases (human kinome) (Homo sapiens, UniProt Q92918)
[2] = molecular target: T1, protein kinases (human kinome) (Homo sapiens, UniProt O95835); settings: LATS1 O95835
T1 sequence (O95835 1-1130): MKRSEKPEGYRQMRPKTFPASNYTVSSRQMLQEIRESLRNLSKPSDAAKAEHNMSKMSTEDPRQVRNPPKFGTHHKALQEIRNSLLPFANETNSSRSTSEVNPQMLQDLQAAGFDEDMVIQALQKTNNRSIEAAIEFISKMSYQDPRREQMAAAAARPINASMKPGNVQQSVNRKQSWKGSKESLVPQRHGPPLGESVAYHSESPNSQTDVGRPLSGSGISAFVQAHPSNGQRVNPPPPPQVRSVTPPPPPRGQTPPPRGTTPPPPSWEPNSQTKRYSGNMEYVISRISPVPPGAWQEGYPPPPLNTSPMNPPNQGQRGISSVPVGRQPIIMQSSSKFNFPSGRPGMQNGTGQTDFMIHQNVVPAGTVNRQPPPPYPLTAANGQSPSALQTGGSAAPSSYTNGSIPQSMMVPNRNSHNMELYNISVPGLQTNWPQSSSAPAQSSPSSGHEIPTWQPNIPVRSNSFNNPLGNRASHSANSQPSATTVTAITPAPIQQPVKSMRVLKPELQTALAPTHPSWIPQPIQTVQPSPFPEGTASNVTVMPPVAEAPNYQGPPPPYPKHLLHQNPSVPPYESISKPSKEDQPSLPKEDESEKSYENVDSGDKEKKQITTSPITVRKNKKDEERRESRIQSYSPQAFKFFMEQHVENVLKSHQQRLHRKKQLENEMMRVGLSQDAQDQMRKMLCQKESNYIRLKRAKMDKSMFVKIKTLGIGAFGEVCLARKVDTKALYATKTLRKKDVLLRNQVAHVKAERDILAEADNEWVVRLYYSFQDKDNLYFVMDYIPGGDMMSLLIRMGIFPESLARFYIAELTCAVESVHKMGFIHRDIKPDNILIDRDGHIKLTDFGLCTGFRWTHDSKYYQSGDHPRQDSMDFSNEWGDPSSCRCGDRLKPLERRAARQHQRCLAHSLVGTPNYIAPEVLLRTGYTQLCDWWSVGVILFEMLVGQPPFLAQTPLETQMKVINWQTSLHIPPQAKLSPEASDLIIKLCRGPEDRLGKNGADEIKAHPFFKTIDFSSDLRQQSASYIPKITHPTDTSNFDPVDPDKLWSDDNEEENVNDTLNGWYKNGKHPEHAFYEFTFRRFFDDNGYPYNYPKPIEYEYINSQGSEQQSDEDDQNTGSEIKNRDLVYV

[3] = molecular target: protein kinases (human kinome) (Homo sapiens, UniProt P12931); settings: for logFC of SRC: Accession P12931; for logFC: SRC (P12931), direction down
[4] = molecular target: protein kinases (human kinome) (Homo sapiens, UniProt O96013); settings: PAK4 O96013-1
[5] = molecular target: protein kinases (human kinome) (Homo sapiens, UniProt O94921); settings: for logFC: CDK14 (O94921-1)
Sequence of protein kinases (human kinome) (Homo sapiens, UniProt O94921) (O94921 whole entry): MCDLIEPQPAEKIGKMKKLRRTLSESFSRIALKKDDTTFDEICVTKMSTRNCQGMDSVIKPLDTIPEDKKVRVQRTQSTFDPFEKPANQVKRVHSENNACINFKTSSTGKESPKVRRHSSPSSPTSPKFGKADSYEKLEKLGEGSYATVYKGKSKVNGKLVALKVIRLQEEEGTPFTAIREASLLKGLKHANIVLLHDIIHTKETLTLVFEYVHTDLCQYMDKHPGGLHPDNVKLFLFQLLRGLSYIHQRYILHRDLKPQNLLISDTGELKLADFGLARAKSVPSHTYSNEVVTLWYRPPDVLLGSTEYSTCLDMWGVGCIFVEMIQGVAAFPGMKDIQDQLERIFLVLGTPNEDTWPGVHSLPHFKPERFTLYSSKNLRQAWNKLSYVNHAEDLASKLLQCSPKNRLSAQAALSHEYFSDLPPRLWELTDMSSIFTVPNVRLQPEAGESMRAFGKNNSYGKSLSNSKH

Sequence of protein kinases (human kinome) (Homo sapiens, UniProt P12931) (P12931 whole entry): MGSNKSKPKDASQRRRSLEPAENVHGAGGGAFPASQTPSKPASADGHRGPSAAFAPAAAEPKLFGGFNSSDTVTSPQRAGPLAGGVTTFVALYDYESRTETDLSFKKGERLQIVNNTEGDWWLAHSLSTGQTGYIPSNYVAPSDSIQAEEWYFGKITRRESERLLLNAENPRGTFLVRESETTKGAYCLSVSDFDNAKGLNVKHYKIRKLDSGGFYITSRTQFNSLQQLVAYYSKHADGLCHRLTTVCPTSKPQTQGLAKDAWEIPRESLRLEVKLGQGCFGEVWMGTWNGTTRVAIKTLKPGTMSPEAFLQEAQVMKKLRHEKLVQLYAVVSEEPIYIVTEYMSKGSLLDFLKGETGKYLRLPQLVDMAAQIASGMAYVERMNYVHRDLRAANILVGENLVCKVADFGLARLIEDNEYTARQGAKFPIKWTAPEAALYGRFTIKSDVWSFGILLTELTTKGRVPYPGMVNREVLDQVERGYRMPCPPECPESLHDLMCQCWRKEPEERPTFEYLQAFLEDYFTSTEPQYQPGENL
Sequence of protein kinases (human kinome) (Homo sapiens, UniProt Q92918) (Q92918 whole entry): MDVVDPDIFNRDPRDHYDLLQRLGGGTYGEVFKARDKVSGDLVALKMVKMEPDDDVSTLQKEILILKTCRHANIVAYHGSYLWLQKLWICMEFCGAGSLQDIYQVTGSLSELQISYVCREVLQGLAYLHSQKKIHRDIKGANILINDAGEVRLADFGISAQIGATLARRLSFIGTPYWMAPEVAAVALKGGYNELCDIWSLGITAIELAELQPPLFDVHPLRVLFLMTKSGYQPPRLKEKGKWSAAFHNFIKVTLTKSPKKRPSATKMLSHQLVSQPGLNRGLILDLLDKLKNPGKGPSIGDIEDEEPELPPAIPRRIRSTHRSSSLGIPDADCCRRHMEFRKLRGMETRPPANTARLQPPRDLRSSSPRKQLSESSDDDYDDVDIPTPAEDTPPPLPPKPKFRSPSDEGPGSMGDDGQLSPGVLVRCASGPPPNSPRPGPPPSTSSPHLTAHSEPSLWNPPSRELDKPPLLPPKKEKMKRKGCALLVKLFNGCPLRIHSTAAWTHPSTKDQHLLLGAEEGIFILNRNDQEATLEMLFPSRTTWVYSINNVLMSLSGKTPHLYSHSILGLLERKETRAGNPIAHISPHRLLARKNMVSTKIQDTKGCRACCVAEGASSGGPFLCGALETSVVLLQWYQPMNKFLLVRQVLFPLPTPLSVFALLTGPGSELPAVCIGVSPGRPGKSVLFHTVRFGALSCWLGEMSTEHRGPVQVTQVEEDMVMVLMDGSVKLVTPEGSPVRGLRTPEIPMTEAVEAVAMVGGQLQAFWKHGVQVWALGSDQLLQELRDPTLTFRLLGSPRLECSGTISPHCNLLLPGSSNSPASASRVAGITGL
Sequence of protein kinases (human kinome) (Homo sapiens, UniProt O96013) (O96013 whole entry): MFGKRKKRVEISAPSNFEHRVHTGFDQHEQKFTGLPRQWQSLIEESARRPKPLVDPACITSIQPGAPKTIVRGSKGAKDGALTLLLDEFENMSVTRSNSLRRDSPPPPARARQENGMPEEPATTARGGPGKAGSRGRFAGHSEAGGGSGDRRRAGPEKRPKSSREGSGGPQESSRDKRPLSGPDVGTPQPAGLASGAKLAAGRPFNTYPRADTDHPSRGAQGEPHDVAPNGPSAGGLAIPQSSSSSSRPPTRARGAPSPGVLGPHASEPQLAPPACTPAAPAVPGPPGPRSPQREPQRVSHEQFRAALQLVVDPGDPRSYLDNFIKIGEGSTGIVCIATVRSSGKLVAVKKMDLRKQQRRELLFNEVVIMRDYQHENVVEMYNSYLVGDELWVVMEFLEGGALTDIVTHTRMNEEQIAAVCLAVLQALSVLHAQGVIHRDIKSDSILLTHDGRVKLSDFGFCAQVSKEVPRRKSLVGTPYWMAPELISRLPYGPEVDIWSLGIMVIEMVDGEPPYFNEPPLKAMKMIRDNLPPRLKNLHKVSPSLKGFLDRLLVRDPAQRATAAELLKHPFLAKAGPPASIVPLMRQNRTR

With Cc1ccc(NC(=O)c2cccc(C(F)(F)F)c2)cc1N1Cc2cnc(Nc3ccc(N4CCN(Cc5cn(CCCCCOc6cccc7c6C(=O)N(C6CCC(=O)NC6=O)C7=O)nn5)CC4)nc3)nc2N(C)C1=O (centres unmarked) [DB0646, N-(3-(7-((6-(4-((1-(5-((2-(2,6-Dioxopiperidin-3-yl)-1,3-dioxoisoindolin-4-yl)oxy)pentyl)-1H-1,2,3-triazol-4-yl)methyl)piperazin-1-v)pyridin-3-yl)amino)-1-methyl-2-oxo-1,4-dihydropyrimido[4,5-d]pyrimidin-3(2H)-yl)-4-methylphenyl)-3-(trifluoromethyl)benzamide] the “logFC MAP4K1 (Q92918)” value ([1]; experiment wp045) was −0.4789, the “logFC MAP4K1 (Q92918)” value ([1]; experiment wp152) was −0.3638 and the “logFC MAP4K1 (Q92918)” value ([1]; experiment wp160, 4 hr) was −0.3228. The “logFC MAP4K1 (Q92918)” value ([1]; experiment wp160, 8 hr) was −0.5785, the logFC ([2]; experiment wp160, 8 hr) was −0.3382 and the “logFC LATS1” value ([2]; experiment wp160, 8 hr) was −0.3382. The “logFC of SRC” value ([3]; experiment wp152) was −0.3941, the “logFC of SRC” value ([3]; experiment wp160, 4 hr) was −0.5186 and the “logFC of SRC” value ([3]; experiment wp160, 8 hr) was −0.6833. The logFC ([3]; experiment wp152) was −0.3941, the logFC ([3]; experiment wp160, 4 hr) was −0.5186 and the logFC ([3]; experiment wp160, 8 hr) was −0.6833.

In the case of Cc1ccc(NC(=O)c2cccc(C(F)(F)F)c2)cc1N1Cc2cnc(Nc3ccc(N4CCN(CCCOc5cccc6c5C(=O)N(C5CCC(=O)NC5=O)C6=O)CC4)nc3)nc2N(C)C1=O (centres unmarked) [DB0662], the logFC ([4]; experiment wp168) is reported as −1.34, the “logFC PAK4” value ([4]; experiment wp168) is reported as −1.34 and the “logFC MAP4K1 (Q92918)” value ([1]; experiment wp168) is reported as −0.4067. For the same compound, the “logFC of SRC” value ([3]; experiment wp168) was −0.9018 and the “logFC of SRC (P12931)” value ([3]; Experiment wp168) was −0.9018.

Cc1ccc(NC(=O)c2cccc(C(F)(F)F)c2)cc1N1Cc2cnc(Nc3ccc(N4CCN(CCCCC(=O)N[C@H](C(=O)N5C[C@H](O)C[C@H]5C(=O)N[C@@H](C)c5ccc(-c6scnc6C)cc5)C(C)(C)C)CC4)nc3)nc2N(C)C1=O [DB1113] was tested, and the “logFC MAP4K1 (Q92918)” value ([1]; experiment wp168) was −0.8463.

With O=C1CCC(N2C(=O)c3cccc(NCCCCCCCCN4CCC(NC(=O)c5[nH]ncc5NC(=O)c5c(Cl)cccc5Cl)CC4)c3C2=O)C(=O)N1 (centres unmarked) [MFH.5.126.1] the logFC ([5]; experiment wp076) was −0.3413 and the “logFC of CDK14 (O94921-1)” value ([5]; experiment wp076) was −0.3413.

In the case of Cc1ncsc1-c1ccc([C@H](C)NC(=O)[C@@H]2C[C@@H](O)CN2C(=O)[C@@H](NC(=O)CCCCCN2CCN(c3ccc(Nc4ncc5scc(-c6cccc(NS(C)(=O)=O)c6)c5n4)cc3)CC2)C(C)(C)C)cc1 [RSS0680, (2S,4R)-1-((S)-3,3-Dimethyl-2-(6-(4-(4-((7-(3-(methylsulfonamido)phenyl)thieno[3,2-d]pyrimidin-2-yl)amino)phenyl)piperazin-1-yl)hexanamido)butanoyl)-4-hydroxy-N—((S)-1-(4-(4-methylthiazol-5yl)phenyl)ethyl)pyrrolidine-2-carboxamide], the logFC ([2]; experiment wp117) is reported as −0.4143 and the “logFC LATS1” value ([2]; experiment wp117) is reported as −0.4143.

In the case of Nc1ncnc2c1c(-c1ccc(Oc3ccccc3)cc1)nn2[C@H]1CC[C@H](N2CCN(CCOCCNC(=O)CNc3cccc4c3C(=O)N(C3CCC(=O)NC3=O)C4=O)CC2)CC1 (some centres unmarked) [SB1.G.181], the logFC ([2]; experiment wp071) is reported as −1.273 and the “logFC LATS1” value ([2]; experiment wp071) is reported as −1.273.

In the case of Cc1ccc(C(=O)Nc2ccc(CN3CCN(CCCOCCOCCOCCNC(=O)COc4cccc5c4C(=O)N(C4CCC(=O)NC4=O)C5=O)CC3)c(C(F)(F)F)c2)cc1C#Cc1cnc2cccnn12 (centres unmarked) [SB1.G.187], the logFC ([5]; experiment wp172) is reported as −1.525 and the “logFC of CDK14 (O94921-1)” value ([5]; Experiment wp172) is reported as −1.525.

CC(C)S(=O)(=O)c1ccccc1Nc1nc(Nc2ccc(N3CCN(CCOCCNC(=O)CNc4cccc5c4C(=O)N(C4CCC(=O)NC4=O)C5=O)CC3)cc2)ncc1Cl (centres unmarked) [SK.3.91] was tested, and the “logFC MAP4K1 (Q92918)” value ([1]; experiment wp016, 1 uM) was −0.6677, the “logFC MAP4K1 (Q92918)” value ([1]; experiment wp103) was −0.5099 and the “logFC MAP4K1 (Q92918)” value ([1]; experiment wp107) was −0.7036. For the same compound, the “logFC MAP4K1 (Q92918)” value ([1]; experiment wp133, 4 hr) was −0.5528, the “logFC MAP4K1 (Q92918)” value ([1]; experiment wp160, 4 hr) was −0.4817 and the logFC ([2]; experiment wp105) was −0.3335. The “logFC LATS1” value ([2]; experiment wp105) was −0.3335, the logFC ([2]; experiment wp107) was −0.4609 and the “logFC LATS1” value ([2]; experiment wp107) was −0.4609. For the same compound, the logFC ([2]; experiment wp160, 4 hr) was −0.3463, the “logFC LATS1” value ([2]; experiment wp160, 4 hr) was −0.3463 and the “logFC of SRC” value ([3]; experiment wp160, 4 hr) was −0.5292. The logFC ([3]; experiment wp160, 4 hr) was −0.5292, the logFC ([5]; experiment wp172) was −0.8176 and the “logFC of CDK14 (O94921-1)” value ([5]; Experiment wp172) was −0.8176.

With CC(C)S(=O)(=O)c1ccccc1Nc1nc(Nc2ccc(N3CCN(CCOCCOCCNC(=O)CNc4cccc5c4C(=O)N(C4CCC(=O)NC4=O)C5=O)CC3)cc2)ncc1Cl (centres unmarked) [TL12.186] the “logFC MAP4K1 (Q92918)” value ([1]; experiment wp131) was −0.4581 and the “logFC MAP4K1 (Q92918)” value ([1]; experiment wp137) was −0.6136.

With Nc1ncc(-c2ccc(S(=O)(=O)N(CCCNC(=O)CCOCCOCCOCCOCCOCCNc3cccc4c3C(=O)N(C3CCC(=O)NC3=O)C4=O)C3CC3)cc2)cc1-c1ccc2c(c1)CCNC2=O (centres unmarked) [WH.10417.099] the logFC ([4]; experiment wp103) was −0.3705, the “logFC PAK4” value ([4]; experiment wp103) was −0.3705 and the logFC ([4]; experiment wp105) was −0.3478. The “logFC PAK4” value ([4]; experiment wp105) was −0.3478, the logFC ([4]; experiment wp107) was −0.4797 and the “logFC PAK4” value ([4]; experiment wp107) was −0.4797.

In the case of C=CCn1c(=O)c2cnc(Nc3ccc(N4CCN(CCCNc5cccc6c5C(=O)N(C5CCC(=O)NC5=O)C6=O)CC4)cc3)nc2n1-c1cccc(C(C)(C)O)n1 (centres unmarked) [ZNL.02.096], the logFC ([4]; experiment wp056) is reported as −0.634, the “logFC PAK4” value ([4]; experiment wp056) is reported as −0.634 and the logFC ([4]; experiment wp081) is reported as −0.3989. The “logFC PAK4” value ([4]; experiment wp081) was −0.3989, the logFC ([4]; experiment wp106, 2 hr) was −0.4238 and the “logFC PAK4” value ([4]; experiment wp106, 2 hr) was −0.4238. The logFC ([4]; experiment wp106, 4 hr) was −0.5768, the “logFC PAK4” value ([4]; experiment wp106, 4 hr) was −0.5768 and the logFC ([4]; experiment wp118) was −0.5732. For the same compound, the “logFC PAK4” value ([4]; experiment wp118) was −0.5732.
